Experimental data: PMC5909473, “Isoform-selective activity-based profiling of ERK signaling” (Chemical Science, 2018)

What was measured:
[1] = target: T1, ERK1 (Homo sapiens, UniProt P27361); assay: competitive ATP acyl phosphate activity-based profiling, SILAC LC-MS/MS in A549 lysate; format: biochemical; design: gene MAPK3; native endogenous ERK1 in A549 soluble proteome
[2] = target: T2, ERK2 (Homo sapiens, UniProt P28482); assay: competition of ATP acyl phosphate probe labelling by […] free ATP, SILAC LC-MS/MS; format: cell-based
T2 construct: gene MAPK1; native endogenous ERK2 in lung cancer cell proteomes

[3] = target: T1, ERK1; assay: as above; format: cell-based; design: gene MAPK3; native endogenous ERK1 in lung cancer cell proteomes

T1 sequence (P27361 2-379): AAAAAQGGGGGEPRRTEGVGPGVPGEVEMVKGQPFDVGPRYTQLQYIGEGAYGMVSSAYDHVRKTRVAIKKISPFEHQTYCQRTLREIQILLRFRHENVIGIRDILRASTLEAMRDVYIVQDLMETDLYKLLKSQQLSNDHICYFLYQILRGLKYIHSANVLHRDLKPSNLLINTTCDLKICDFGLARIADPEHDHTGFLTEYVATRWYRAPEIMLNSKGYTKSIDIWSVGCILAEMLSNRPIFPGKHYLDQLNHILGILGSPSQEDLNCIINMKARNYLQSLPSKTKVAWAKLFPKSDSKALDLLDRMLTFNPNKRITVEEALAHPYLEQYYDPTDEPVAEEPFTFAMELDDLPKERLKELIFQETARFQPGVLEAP
T2 sequence (P28482 2-360): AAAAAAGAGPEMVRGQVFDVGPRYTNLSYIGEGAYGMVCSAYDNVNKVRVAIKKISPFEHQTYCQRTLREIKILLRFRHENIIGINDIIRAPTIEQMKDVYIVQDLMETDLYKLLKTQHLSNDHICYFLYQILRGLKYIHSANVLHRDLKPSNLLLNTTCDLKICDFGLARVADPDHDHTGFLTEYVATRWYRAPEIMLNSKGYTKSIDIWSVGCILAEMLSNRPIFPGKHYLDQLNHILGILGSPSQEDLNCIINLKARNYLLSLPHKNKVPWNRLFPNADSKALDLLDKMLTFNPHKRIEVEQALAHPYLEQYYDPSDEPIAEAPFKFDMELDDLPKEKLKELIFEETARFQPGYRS

CC(C)Nc1cc(-c2c[nH]c(C(=O)N[C@H](CO)c3cccc(Cl)c3)c2)c(Cl)cn1 [BVD-523]
IC50 [1]: 15 nM

Nc1ncnc2c1ncn2[C@@H]1O[C@H](COP(=O)(O)OP(=O)(O)OP(=O)(O)O)[C@@H](O)[C@H]1O [ATP]
competition of ATP acyl phosphate probe labelling by 1 mM free ATP, SILAC LC-MS/ [2]: both ERK1 and ERK2 probe-modified peptides were highly competed with ATP treatment | competition of ATP acyl phosphate probe labelling by 1 mM free ATP, SILAC LC-MS/ [3]: both ERK1 and ERK2 probe-modified peptides were highly competed with ATP treatment
